Experiments:
Assay in all cases: molybdate-based colorimetric ATPase assay
Type in all cases: biochemical
[1] = biological target: T1, ABCD1 (ALDP) (Homo sapiens, UniProt P33897); details: 10 mM MgCl2, pH 7.5, 37 °C
T1 construct: full length, codon-optimized synthetic gene; C-terminal eYFP-Rho1D4 tag cut off with 3C protease; HEK293 Flp-In TREX; homodimer; in DDM/CHS, liposomes or MSP1D1 nanodiscs

[2] = biological target: T1, ABCD1 (ALDP); details: DDM/CHS detergent; 5 mM ATP, 10 mM MgCl2, pH 7.5, 37 °C; with C24:0-CoA; suggested competition for same site; no stimulation alone
[3] = biological target: T1, ABCD1 (ALDP); details: DDM/CHS detergent; 5 mM ATP, 10 mM MgCl2, pH 7.5, 37 °C
[4] = biological target: T1, ABCD1 (ALDP); details: DDM/CHS detergent; 5 mM ATP, 10 mM MgCl2, pH 7.5, 37 °C; remark: listed apart in the source

T1 sequence (P33897 whole entry): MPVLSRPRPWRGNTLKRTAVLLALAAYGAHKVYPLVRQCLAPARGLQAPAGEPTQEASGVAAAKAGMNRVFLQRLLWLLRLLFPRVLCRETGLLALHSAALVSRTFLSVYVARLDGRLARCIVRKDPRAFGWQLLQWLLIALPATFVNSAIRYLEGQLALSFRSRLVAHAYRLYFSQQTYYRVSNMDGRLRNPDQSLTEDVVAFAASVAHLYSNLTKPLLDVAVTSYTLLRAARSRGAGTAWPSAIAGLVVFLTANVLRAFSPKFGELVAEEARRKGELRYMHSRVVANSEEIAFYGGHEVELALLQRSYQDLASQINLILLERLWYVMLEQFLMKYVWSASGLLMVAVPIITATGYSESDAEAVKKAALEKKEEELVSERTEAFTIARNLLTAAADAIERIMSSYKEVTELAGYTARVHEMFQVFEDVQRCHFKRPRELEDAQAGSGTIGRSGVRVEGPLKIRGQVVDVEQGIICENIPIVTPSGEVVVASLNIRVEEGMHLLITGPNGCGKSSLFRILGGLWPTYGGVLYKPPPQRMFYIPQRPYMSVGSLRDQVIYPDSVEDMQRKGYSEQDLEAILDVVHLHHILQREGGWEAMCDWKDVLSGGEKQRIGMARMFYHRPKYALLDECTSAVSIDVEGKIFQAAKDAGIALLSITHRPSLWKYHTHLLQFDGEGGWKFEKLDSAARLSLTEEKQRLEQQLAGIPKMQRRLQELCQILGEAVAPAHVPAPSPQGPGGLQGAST

| SMILES | inhibition of ATPase activity at 5 mM [1] | ATPase rate stimulation at 0.1 and 1 mM [4] | also measured |
| --- | --- | --- | --- |
| [O]=[V]([OH])([OH])[OH] [sodium orthovanadate] | ATP hydrolysis was sensitive to inhibition by sodium orthovanadate (VO4) | – | – |
| CC(=O)SCCNC(=O)CCNC(=O)[C@H](O)C(C)(C)COP(=O)(O)OP(=O)(O)OC[C@H]1O[C@@H](n2cnc3c(N)ncnc32)[C@H](O)[C@@H]1OP(=O)(O)O [acetyl-CoA] | – | – | decrease of C24:0-CoA stimulated ATPase [2]: it can partially inhibit ATPase stimulation by C24:0-CoA |
| CCCCCCCC/C=C\CCCCCCCC(=O)SCCNC(=O)CCNC(=O)[C@H](O)C(C)(C)COP(=O)(O)OP(=O)(O)OC[C@H]1O[C@@H](n2cnc3c(N)ncnc32)[C@H](O)[C@@H]1OP(=O)(O)O [C18:1-CoA] | – | – | ATPase rate stimulation [3]: we also observed ATPase rate stimulation by C18:1-CoA |
| CCCCCCCCCCCCCCCCCCCCCCCC(=O)SCCNC(=O)CCNC(=O)[C@H](O)C(C)(C)COP(=O)(O)OP(=O)(O)OC[C@H]1O[C@@H](n2cnc3c(N)ncnc32)[C@H](O)[C@@H]1OP(=O)(O)O [C24:0-CoA] | – | we observed ATPase rate stimulation for C24:0-CoA and C26:0-CoA | – |
| CCCCCCCCCCCCCCCCCCCCCCCCCC(=O)SCCNC(=O)CCNC(=O)[C@H](O)C(C)(C)COP(=O)(O)OP(=O)(O)OC[C@H]1O[C@@H](n2cnc3c(N)ncnc32)[C@H](O)[C@@H]1OP(=O)(O)O [C26:0-CoA] | – | we observed ATPase rate stimulation for C24:0-CoA and C26:0-CoA | – |
| Nc1ncnc2c1ncn2[C@@H]1O[C@H](COP(=O)(O)OP(=O)(O)OP(O)(O)=S)[C@@H](O)[C@H]1O [ATPγS] | sensitive to inhibition by sodium orthovanadate (VO4) or the non-hydrolysable ATP analog ATPγS | – | – |

Reference: article PMC8748874, “Structures of the human peroxisomal fatty acid transporter ABCD1 in a lipid environment” (Communications Biology, 2022)
